These results are taken from article PMC4452343, “Monitoring β-arrestin recruitment via β-lactamase enzyme fragment complementation: purification of peptide E as a low-affinity ligand for mammalian bombesin receptors” (PLoS ONE, 2015).

The target of one assay is T1, hNMBR (Homo sapiens, UniProt P28336).
T1 construct: expressed in transfected cells; host or cells: CHO cells stably expressing hNMBR
Nature of the assay: NFAT-luciferase reporter assay in CHO cells expressing hNMBR. The format is cell-based. As to conditions: 6 h incubation, read-out: EC50, activation of NFAT-promotor. The method, then: CHO cells stably expressing the GPCR of interest were transiently transfected with NFAT-TA-Luc plasmid (Clontech). Cells were then left overnight before being plated in 96 well plates (20000 cells/well). After an additional 24 h, the synthetic ligands were added to the wells and incubated for 6 h. Following incubation, firefly luciferase assays were performed using the Steady-Glo Luciferase Assay System (Promega). Luminescence was detected with a plate reader (Victor V: Perkin Elmer), according to the manufacturer’s instructions. EC50 values were calculated using Workout 2.0 Data Analysis Software (Perkin Elmer).
(In general: Reporter assays use an easily measured gene product as a stand-in for the process of interest.)

The next assay relates to hOX1R. Put plainly: ß-lactamase EFC assay of ß-arrestin recruitment, OX1R reporter cells. The format is cell-based, human. To be noted: 14 h ligand incubation, CCF4/AM substrate. The method, then:
CHO cells stably expressing both the GPCR-omega chimera and ß-arrestin 2-alpha chimera were plated either in 6 well plates or in 96 well plates. After 24 h, ligands or HPLC fractions were added to the wells, and incubated for 14 h. After incubation, cells were washed once in HBSS and then incubated with CCF4/AM substrate for 2 h. ß-lactamase activity was measured either by FACS or with a plate reader (Victor V: Perkin Elmer).
In general terms: Recruitment of arrestin is a read-out of receptor activation apart from second messengers.

T1 sequence (P28336 whole entry): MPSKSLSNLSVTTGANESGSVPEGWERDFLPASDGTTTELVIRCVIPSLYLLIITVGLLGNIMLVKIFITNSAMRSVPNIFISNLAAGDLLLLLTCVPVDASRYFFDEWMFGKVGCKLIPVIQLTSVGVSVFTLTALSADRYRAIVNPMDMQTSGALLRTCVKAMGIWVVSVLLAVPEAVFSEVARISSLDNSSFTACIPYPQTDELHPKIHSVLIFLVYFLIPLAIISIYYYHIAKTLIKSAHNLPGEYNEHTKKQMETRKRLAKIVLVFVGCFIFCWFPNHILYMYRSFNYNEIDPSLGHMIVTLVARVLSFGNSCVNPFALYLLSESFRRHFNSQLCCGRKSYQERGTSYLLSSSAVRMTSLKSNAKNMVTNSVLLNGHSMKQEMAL

Usually EC50 stands for the concentration at which the effect is half-maximal. On to `CSCC[C@H](NC(=O)[C@H](Cc1ccccc1)NC(=O)[C@H](Cc1cnc[nH]1)NC(=O)CNC(=O)[C@@H](NC(=O)[C@H](C)NC(=O)[C@H](Cc1c[nH]c2ccccc12)NC(=O)[C@H](CC(C)C)NC(=O)[C@H](CC(N)=O)NC(=O)CN)[C@@H](C)O)C(N)=O` [NMB, neuromedin B], for which the concentration giving a half-maximal response (EC50) at hNMBR was found to be 160 pM.
In the case of “orexin-A (QPLPDCCRQKTCSCRLYELLHGAGNHAAGILTL) [unrelated peptide; ligand of orexin type 1 receptor, used as control]”, in the assay with hOX1R, the “Response in ß-lactamase EFC assay (ß-arrestin recruitment to OX1R)” value is on record as “responded specifically to orexin-A”.
